# From US20250115600A1, “COVALENT MODIFIERS OF AKT1 AND USES THEREOF” (Terremoto Biosciences, Inc., priority 2022, published 2025)
# Key:
# Test in all cases: Live cell target engagement (NanoBRET) in HEK293 cells
# Type in all cases: cell-based
# [1] = molecular target: AKT1 E17K (Homo sapiens (Human), UniProt P31749, E17K); conditions: for IC50: HEK293, 2 hours at 37° C.
# [2] = molecular target: AKT2 (Homo sapiens (Human), UniProt P31751); conditions: HEK293, 2 hours at 37° C.
# [3] = molecular target: AKT1 WT (Homo sapiens (Human), UniProt P31749); conditions: HEK293, 2 hours at 37° C.
# Sequence of AKT1 WT (P31749 whole entry): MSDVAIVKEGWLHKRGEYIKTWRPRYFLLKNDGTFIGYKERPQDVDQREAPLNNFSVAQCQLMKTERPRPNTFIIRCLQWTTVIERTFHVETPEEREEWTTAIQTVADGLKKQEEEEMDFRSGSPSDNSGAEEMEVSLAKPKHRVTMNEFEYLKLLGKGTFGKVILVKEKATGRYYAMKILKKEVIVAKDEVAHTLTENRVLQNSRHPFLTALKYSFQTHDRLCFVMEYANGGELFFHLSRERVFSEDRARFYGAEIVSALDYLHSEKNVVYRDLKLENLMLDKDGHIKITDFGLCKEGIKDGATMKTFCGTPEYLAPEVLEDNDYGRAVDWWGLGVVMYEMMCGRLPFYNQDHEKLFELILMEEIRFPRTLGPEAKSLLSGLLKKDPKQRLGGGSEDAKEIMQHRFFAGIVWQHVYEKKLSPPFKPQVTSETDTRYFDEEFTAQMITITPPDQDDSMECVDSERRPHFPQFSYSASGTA
# Sequence of AKT1 E17K (P31749 whole entry E17K): as the sequence (P31749 whole entry) above, with E17K counted along it
# Sequence of AKT2 (P31751 whole entry): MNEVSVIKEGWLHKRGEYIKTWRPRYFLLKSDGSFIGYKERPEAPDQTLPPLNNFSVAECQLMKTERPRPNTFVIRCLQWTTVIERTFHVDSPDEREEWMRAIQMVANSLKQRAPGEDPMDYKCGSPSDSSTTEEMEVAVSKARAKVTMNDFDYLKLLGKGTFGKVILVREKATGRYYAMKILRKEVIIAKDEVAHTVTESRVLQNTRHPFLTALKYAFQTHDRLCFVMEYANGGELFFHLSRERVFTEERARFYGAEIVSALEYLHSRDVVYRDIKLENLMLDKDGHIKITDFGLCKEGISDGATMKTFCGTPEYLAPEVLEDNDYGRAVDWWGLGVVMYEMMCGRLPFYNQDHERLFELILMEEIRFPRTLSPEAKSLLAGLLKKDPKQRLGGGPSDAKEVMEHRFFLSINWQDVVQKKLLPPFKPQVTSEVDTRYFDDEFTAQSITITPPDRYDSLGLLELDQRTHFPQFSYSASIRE
smiles,measurement,setting,value
"Nc1ncccc1-c1nc2ccc(C3CC3)nc2n1-c1ccc(CNC(=O)Cc2ccc(C=O)c(O)c2Cl)cc1 [Example 22, N-({4-[2-(2-aminopyridin-3-yl)-5-cyclopropylimidazo[4,5-b]pyridin-3-yl]phenyl}methyl)-2-(2-chloro-4-formyl-3-hydroxyphenyl)acetamide]",AKT1 E17K IC50: Selectivity vs AKT1 WT,[1],3.1
same,AKT1 E17K IC50: Selectivity vs AKT2,[1],190
same,IC50,[1],< 100 nM
same,IC50,[2],> 500 nM
same,IC50,[3],< 100 nM
"Nc1ncccc1-c1nc2ccc(-c3ccccc3)nc2n1-c1ccc(CNC(=O)Cc2cnc(C=O)c(O)c2)cc1 [Compound 77, N-(4-(2-(2-aminopyridin-3-yl)-5-phenyl-3H-imidazo[4,5-b]pyridin-3-yl)benzyl)-2-(6-formyl-5-hydroxypyridin-3-yl)acetamide]",AKT1 E17K IC50: Selectivity vs AKT1 WT,[1],4.3
same,AKT1 E17K IC50: Selectivity vs AKT2,[1],39
same,IC50,[1],< 100 nM
same,IC50,[2],> 500 nM
same,IC50,[3],100 to 500 nM
"Nc1ncccc1-c1nc2ccc(C(F)F)nc2n1-c1ccc(CNC(=O)Cc2ccc(C=O)c(O)c2)cc1 [Example 7, N-({4-[2-(2-aminopyridin-3-yl)-5-(difluoromethyl)imidazo[4,5-b]pyridin-3-yl]phenyl}methyl)-2-(4-formyl-3-hydroxyphenyl)acetamide]",AKT1 E17K IC50: Selectivity vs AKT1 WT,[1],5.8
same,AKT1 E17K IC50: Selectivity vs AKT2,[1],110
same,IC50,[1],< 100 nM
same,IC50,[2],> 500 nM
same,IC50,[3],100 to 500 nM
"Nc1ncccc1-c1nc2ccc(-c3ccccc3)nc2n1-c1ccc(CC(=O)NC2(c3ccc(C=O)c(O)c3)CC2)cc1 [Example 11, 2-{4-[2-(2-aminopyridin-3-yl)-5-phenylimidazo[4,5-b]pyridin-3-yl]phenyl}-N-[1-(4-formyl-3-hydroxyphenyl)cyclopropyl]acetamide]",AKT1 E17K IC50: Selectivity vs AKT1 WT,[1],3.1
same,AKT1 E17K IC50: Selectivity vs AKT2,[1],28
same,IC50,[1],< 100 nM
same,IC50,[2],100 to 500 nM
same,IC50,[3],< 100 nM
"CC(NC(=O)Cc1ccc(C=O)c(O)c1)c1ccc(-n2c(-c3cccnc3N)nc3ccc(-c4ccccc4)nc32)cc1 (stereo not shown) [Compound 116, N-(1-{4-[2-(2-aminopyridin-3-yl)-5-phenylimidazo[4,5-b]pyridin-3-yl]phenyl}ethyl)-2-(4-formyl-3-hydroxyphenyl)acetamide]",AKT1 E17K IC50: Selectivity vs AKT1 WT,[1],1.9
same,AKT1 E17K IC50: Selectivity vs AKT2,[1],10
same,IC50,[1],< 100 nM
same,IC50,[2],100 to 500 nM
same,IC50,[3],< 100 nM
"Nc1ncccc1-c1nc2cccnc2n1-c1ccc(CNC(=O)c2cnc(O)c(C=O)c2)cc1 [Compound 46, N-(4-(2-(2-aminopyridin-3-yl)-3H-imidazo[4,5-b]pyridin-3-yl)benzyl)-5-formyl-6-hydroxynicotinamide]",IC50,[1],> 500 nM
same,IC50,[2],> 500 nM
same,IC50,[3],> 500 nM
"CC(NC(=O)Cc1ccc(O)c(C=O)c1)c1ccc(-n2c(-c3cccnc3N)nc3ccc(-c4ccccc4)nc32)cc1 (stereo not shown) [Compound 115, N-(1-(4-(2-(2-aminopyridin-3-yl)-5-phenyl-3H-imidazo[4,5-b]pyridin-3-yl)phenyl)ethyl)-2-(3-formyl-4-hydroxyphenyl)acetamide]",AKT1 E17K IC50: Selectivity vs AKT1 WT,[1],1.2
same,AKT1 E17K IC50: Selectivity vs AKT2,[1],4.9
same,IC50,[1],< 100 nM
same,IC50,[2],100 to 500 nM
same,IC50,[3],100 to 500 nM
"Nc1ncccc1-c1nc2cccnc2n1-c1ccc(CNC(=O)c2cc(C=O)c(O)cn2)cc1 [Compound 45, N-(4-(2-(2-aminopyridin-3-yl)-3H-imidazo[4,5-b]pyridin-3-yl)benzyl)-4-formyl-5-hydroxypicolinamide]",AKT1 E17K IC50: Selectivity vs AKT1 WT,[1],2.7
same,AKT1 E17K IC50: Selectivity vs AKT2,[1],>7.7
same,IC50,[1],> 500 nM
same,IC50,[2],> 500 nM
same,IC50,[3],> 500 nM
"Nc1ncccc1-c1nc2ccc(-c3ccccc3)nc2n1-c1ccc(CNC(=O)c2ccc(C=O)c(O)c2F)cc1 [Compound 85, N-({4-[2-(2-aminopyridin-3-yl)-5-phenylimidazo[4,5-b]pyridin-3-yl]phenyl}methyl)-2-fluoro-4-formyl-3-hydroxybenzamide]",AKT1 E17K IC50: Selectivity vs AKT1 WT,[1],1.3
same,AKT1 E17K IC50: Selectivity vs AKT2,[1],6.5
same,IC50,[1],< 100 nM
same,IC50,[2],100 to 500 nM
same,IC50,[3],< 100 nM
"Nc1ncccc1-c1nc2ccc(-c3ccccc3)nc2n1-c1ccc(CNCCCc2ccc(O)c(C=O)c2)cc1 [Compound 129, 5-(3-((4-(2-(2-aminopyridin-3-yl)-5-phenyl-3H-imidazo[4,5-b]pyridin-3-yl)benzyl)amino)propyl)-2-hydroxybenzaldehyde]",AKT1 E17K IC50: Selectivity vs AKT1 WT,[1],0.51
same,AKT1 E17K IC50: Selectivity vs AKT2,[1],2.5
same,IC50,[1],< 100 nM
same,IC50,[2],< 100 nM
same,IC50,[3],< 100 nM
"Nc1ncccc1-c1nc2ccc(-c3cccc(N4CCC(N5CCCC5=O)CC4)c3F)nc2n1-c1ccc(CNC(=O)Cc2ccc(C=O)c(O)c2)cc1 [Compound 42, N-({4-[2-(2-aminopyridin-3-yl)-5-{2-fluoro-3-[4-(2-oxopyrrolidin-1-yl)piperidin-1-yl]phenyl}imidazo[4,5-b]pyridin-3-yl]phenyl}methyl)-2-(4-formyl-3-hydroxyphenyl)acetamide]",AKT1 E17K IC50: Selectivity vs AKT1 WT,[1],1.7
same,AKT1 E17K IC50: Selectivity vs AKT2,[1],4.8
same,IC50,[1],< 100 nM
same,IC50,[2],< 100 nM
same,IC50,[3],< 100 nM
"Nc1ncccc1-c1nc2ccc(OC3CC3)nc2n1-c1ccc(CNC(=O)Cc2ccc(C=O)c(O)c2)cc1 [Example 10, N-({4-[2-(2-aminopyridin-3-yl)-5-cyclopropoxyimidazo[4,5-b]pyridin-3-yl]phenyl}methyl)-2-(4-formyl-3-hydroxyphenyl)acetamide]",AKT1 E17K IC50: Selectivity vs AKT1 WT,[1],3.9
same,AKT1 E17K IC50: Selectivity vs AKT2,[1],160
same,IC50,[1],< 100 nM
same,IC50,[2],> 500 nM
same,IC50,[3],< 100 nM
"Nc1ncccc1-c1nc2ccc(-c3ccccc3)nc2n1-c1ccc(CNC(=O)c2cc(Br)c(O)c(C=O)c2)cc1 [Compound 50, N-({4-[2-(2-aminopyridin-3-yl)-5-phenylimidazo[4,5-b]pyridin-3-yl]phenyl}methyl)-3-bromo-5-formyl-4-hydroxybenzamide]",AKT1 E17K IC50: Selectivity vs AKT1 WT,[1],2.1
same,AKT1 E17K IC50: Selectivity vs AKT2,[1],32
same,IC50,[1],< 100 nM
same,IC50,[2],100 to 500 nM
same,IC50,[3],< 100 nM
"Nc1ncccc1-c1nc2ccc(-c3ccccc3)nc2n1-c1ccc(N2CC(NCc3ccc(C=O)c(O)c3)C2)cc1 [Compound 38, 4-(((1-(4-(2-(2-aminopyridin-3-yl)-5-phenyl-3H-imidazo[4,5-b]pyridin-3-yl)phenyl)azetidin-3-yl)amino)methyl)-2-hydroxybenzaldehyde]",AKT1 E17K IC50: Selectivity vs AKT1 WT,[1],1.5
same,AKT1 E17K IC50: Selectivity vs AKT2,[1],15
same,IC50,[1],100 to 500 nM
same,IC50,[2],> 500 nM
same,IC50,[3],100 to 500 nM
"Nc1ncccc1-c1nc2ccc(-c3ccccc3)nc2n1-c1ccc(C(=O)NCCc2ccc(C=O)c(O)c2)cn1 [Compound 112, 6-[2-(2-aminopyridin-3-yl)-5-phenylimidazo[4,5-b]pyridin-3-yl]-N-[2-(4-formyl-3-hydroxyphenyl)ethyl]pyridine-3-carboxamide]",AKT1 E17K IC50: Selectivity vs AKT1 WT,[1],1
same,AKT1 E17K IC50: Selectivity vs AKT2,[1],1
same,IC50,[1],> 500 nM
same,IC50,[2],> 500 nM
same,IC50,[3],> 500 nM
"CC(C)(C(=O)NCc1ccc(-n2c(-c3cccnc3N)nc3ccc(-c4ccccc4)nc32)cc1)c1ccc(C=O)c(O)c1 [Compound 60, N-({4-[2-(2-aminopyridin-3-yl)-5-phenylimidazo[4,5-b]pyridin-3-yl]phenyl}methyl)-2-(4-formyl-3-hydroxyphenyl)-2-methylpropanamide]",AKT1 E17K IC50: Selectivity vs AKT1 WT,[1],8.2
same,AKT1 E17K IC50: Selectivity vs AKT2,[1],45
same,IC50,[1],< 100 nM
same,IC50,[2],> 500 nM
same,IC50,[3],100 to 500 nM
"CN(Cc1ccc(-n2c(-c3cccnc3N)nc3ccc(-c4ccccc4)nc32)cc1)C(=O)Cc1ccc(C=O)c(O)c1 [Compound 64, N-(4-(2-(2-aminopyridin-3-yl)-5-phenyl-3H-imidazo[4,5-b]pyridin-3-yl)benzyl)-2-(4-formyl-3-hydroxyphenyl)-N-methylacetamide]",AKT1 E17K IC50: Selectivity vs AKT1 WT,[1],0.5
same,AKT1 E17K IC50: Selectivity vs AKT2,[1],2
same,IC50,[1],< 100 nM
same,IC50,[2],100 to 500 nM
same,IC50,[3],< 100 nM
"COc1cc(CCNCc2ccc(-n3c(-c4cccnc4N)nc4ccc(-c5ccccc5)nc43)cc2)ccc1C=O [Compound 97, 4-{2-[({4-[2-(2-aminopyridin-3-yl)-5-phenylimidazo[4,5-b]pyridin-3-yl]phenyl}methyl)amino]ethyl}-2-methoxybenzaldehyde]",AKT1 E17K IC50: Selectivity vs AKT1 WT,[1],0.56
same,AKT1 E17K IC50: Selectivity vs AKT2,[1],1.9
same,IC50,[1],< 100 nM
same,IC50,[2],100 to 500 nM
same,IC50,[3],< 100 nM
"Nc1ncccc1-c1nc2cccnc2n1-c1ccc(CNCCc2ccc(C=O)c(O)c2F)cc1 [Compound 95, 4-(2-((4-(2-(2-aminopyridin-3-yl)-3H-imidazo[4,5-b]pyridin-3-yl)benzyl)amino)ethyl)-3-fluoro-2-hydroxybenzaldehyde]",AKT1 E17K IC50: Selectivity vs AKT1 WT,[1],1.8
same,AKT1 E17K IC50: Selectivity vs AKT2,[1],2.5
same,IC50,[1],> 500 nM
same,IC50,[2],> 500 nM
same,IC50,[3],> 500 nM
"CC(=O)Nc1c(C=O)ccc(CCNCc2ccc(-n3c(-c4cccnc4N)nc4cccnc43)cc2)c1F [Compound 89, N-(3-{2-[({4-[2-(2-aminopyridin-3-yl)imidazo[4,5-b]pyridin-3-yl]phenyl}methyl)amino]ethyl}-2-fluoro-6-formylphenyl)acetamide]",AKT1 E17K IC50: Selectivity vs AKT1 WT,[1],0.14
same,AKT1 E17K IC50: Selectivity vs AKT2,[1],2.1
same,IC50,[1],> 500 nM
same,IC50,[2],> 500 nM
same,IC50,[3],100 to 500 nM
"Cn1cc(-c2ccc3nc(-c4cccnc4N)n(-c4ccc(CNC(=O)Cc5ccc(C=O)c(O)c5)cc4)c3n2)cn1 [Compound 32, N-({4-[2-(2-aminopyridin-3-yl)-5-(1-methylpyrazol-4-yl)imidazo[4,5-b]pyridin-3-yl]phenyl}methyl)-2-(4-formyl-3-hydroxyphenyl)acetamide]",AKT1 E17K IC50: Selectivity vs AKT1 WT,[1],9
same,AKT1 E17K IC50: Selectivity vs AKT2,[1],110
same,IC50,[1],< 100 nM
same,IC50,[2],> 500 nM
same,IC50,[3],100 to 500 nM
